Patent US9415034B2, “Inhibitors and enhancers of uridine diphosphate-glucuronosyltransferase 2B (UGT2B)” (NATIONAL DEFENSE MEDICAL CENTER, priority 2005, dated 2016)

Test system: UGT2B
Experiment: in vitro
Conditions: for inhibition at 60 min, 8.5 μM / inhibition at 60 min, 85 μM / inhibition at 60 min, 850 μM / inhibition at 60 min, 8.5 µM / inhibition at 60 min, 85 µM / inhibition at 60 min, 850 µM / inhibition at 60 min: male, Sprague-Dawley, rat; for inhibition at 60 min, 8.5 μM / inhibition at 60 min, 85 μM / inhibition at 60 min, 850 μM / inhibition at 60 min, 8.5 µM / inhibition at 60 min, 85 µM / inhibition at 60 min, 850 µM: % Inhibition (Mean ± SD)
Procedure: In the following experiment, 27 different kinds of CHEs and 10 different excipients were used as UGT2B inhibitor in this invention. These CHEs are pure compounds available commercially, and were purchased from Sigma Chemical Co., Nacalai Tesque (Kyoto, Japan) and Indofine Chemical Co., Inc. (Somerville, N.J.). These UGT2B inhibitors are dissolved in alcohol at the concentration of 1, 10, 100 μM for the following experiment.
These excipients are dissolved in water and make up to 0.5%, 5%, 50% (wt %, w/v) for the following experiment. (Note: BRIJ is a registered trademark of ICI Americas, Inc.; Pluronic is a registered trademark of BASF Corporation.)
The Sprague-Dawley male rats, weighted 300-400 g are used as model animals in these experiments. The microsome is prepared as follows: • i. Sacrifice a rat after 12-16 hours fasting, take its liver; wipe dry the liver and weigh it. • ii. Add 300% (by volume) of cold 0.3M sucrose solution, and homogenize the liver. • iii. Centrifuge the homogenized liver suspension at 9000×g speed (KS-800, Kubota, made in Japan) for 10 min at 4° C. Collect the supernatant. • iv. Centrifuge the supernatant at 105,000×g speed (L8-60M, Beckman, made in USA) for 60 min at 4° C. • v. Remove the supernatant, add 0.3M sucrose (of the same volume) and repeat the homogenization. The homogenized liver suspension is the microsome. Store the microsome at −70° C.
Thaw the microsome before use. Add 5 μl/ml BRIJ®35 (Fisher et al. 2000, Drug Metabolism & Disposition. 28(5):560-6) into microsome by a ratio of microsome:BRIJ®35=8:1 (v/v).
The protein amount is determined as follows: • i. Take 0.1 ml microsome and dilute to 5 ml 0.85% NaCl (50-fold dilution, v/v). Take 0.2 ml of the diluted microsome and place it in a capped test tube (triple experiments). Separately, replacing microsome with 0.2 ml NaCl as the control. • ii. Add 2.2 ml Biuret regent (SIGMA, 690-A) into each test tube, mix well and store at room temperature for 10 min. • iii. Add 0.1 ml folin regent (SIGMA, 690-A), mix immediately, and store at room temperature for 30 min. Measure the absorbance at 550 nm wave length within the 30 min. Measure the concentration of protein in microsome based on the standard curve generated by various bovine albumin concentration and absorbance. 4. The Measurement of the Inhibition of UGT2B Activity in vitro • i. […] Mix solution (A) and 17 μl solution (B) thoroughly, place in a 37° C. water bath and shake at 125 rpm for 60 min. • iii. Add 1 ml ACN to interrupt the reaction. • iv. Centrifuge at 130,000×g speed at 4° C. for 5 min, and • v. […] 5.
Set the Ultra-violet detector's (SPD-10A, Shimadzu, Kyoto, made in Japan) wave length to 210 nm.
Those CHEs are commercially available pure compounds, acquired from Sigma Chemical Co., Nacalai Tesque (Kyoto, Japan) and […] (Somerville, N.J.). Their categories, names, sources, and chemical compositions are described in Table 5.

[1] = Table 6, enhancer 8.5 μM, negative = enhancement
[2] = Table 6, enhancer 85 μM, negative = enhancement
[3] = Table 6, enhancer 850 μM, negative = enhancement
[4] = inhibition rate on the metabolism of nalbuphine in microsome

| Structure (SMILES) | inhibition at 60 min, 8.5 μM | inhibition at 60 min, 85 μM | inhibition at 60 min, 850 μM | inhibition at 60 min, 8.5 µM | inhibition at 60 min, 85 µM | inhibition at 60 min, 850 µM | other results |
| --- | --- | --- | --- | --- | --- | --- | --- |
| O=c1c(O)c(-c2ccc(O)cc2)oc2cc(O)cc(O)c12 [kaempferol, Kaempferol] | -19.5 ± 14.2% | -76 ± 27.3% | -71.1 ± 4.51% | – | – | – | – |
| CCCCCCCCCCCCO [lauryl alcohol, Lauryl Alcohol] | – | – | – | 14.4 ± 3.37% | 19.5 ± 3.46% | 6.23 ± 6.75% | – |
| O=C1C[C@@H](c2ccc(O[C@@H]3O[C@H](CO)[C@@H](O)[C@H](O)[C@H]3O)cc2)Oc2cc(O)ccc21 [liquiritin, Liquiritin] | -9.38 ± 1.8% | -17.7 ± 8.51% | -29.2 ± 2.74% | – | – | – | – |
| O=c1cc(-c2ccc(O)c(O)c2)oc2cc(O)cc(O)c12 [luteolin, Luteolin] | -25.5 ± 26.6% | -28.3 ± 15.2% | -17.6 ± 12.1% | – | – | – | – |
| O=c1cc(-c2ccc(O)c(O)c2)oc2cc(O[C@@H]3O[C@H](CO)[C@@H](O)[C@H](O)[C@H]3O)cc(O)c12 [luteolin-7-glucoside, Luteolin-7-Glucoside] | – | – | – | – | – | – | % Inhibition (Mean ± SD) [1]: −45.053 ± 3.583%; % Inhibition (Mean ± SD) [2]: −36.109 ± 9.203%; % Inhibition (Mean ± SD) [3]: −47.869 ± 26.599% |
| C[C@@H]1O[C@@H](O[C@H]2[C@H](Oc3cc(O)c4c(c3)O[C@H](c3ccc(O)cc3)CC4=O)O[C@H](CO)[C@@H](O)[C@@H]2O)[C@H](O)[C@H](O)[C@H]1O [narigin, Narigin] | – | – | – | – | – | – | % Inhibition (Mean ± SD) [1]: −124.10 ± 16.541%; % Inhibition (Mean ± SD) [2]: −80.70 ± 4.927%; % Inhibition (Mean ± SD) [3]: −98.15 ± 5.276% |
| COc1ccc([C@@H]2CC(=O)c3c(O)cc(O[C@@H]4O[C@H](CO)[C@@H](O)[C@H](O)[C@H]4O[C@@H]4O[C@@H](C)[C@H](O)[C@@H](O)[C@H]4O)cc3O2)cc1O [neohesperidin, Neohesperidin] | – | – | – | – | – | – | % Inhibition (Mean ± SD) [1]: −66.586 ± 9.614%; % Inhibition (Mean ± SD) [2]: −113.63 ± 8.986%; % Inhibition (Mean ± SD) [3]: −113.46 ± 16.721% |
| C[C@H](Cc1ccc(O)c(O)c1)[C@@H](C)Cc1ccc(O)c(O)c1 [nordihydroguaiaretic acid] | -142 ± 41% | -165 ± 23% | -188 ± 16.6% | – | – | – | inhibition at 60 min (rate of inhibition (enhancement of the metabolism of nalbuphine in liver microsome)): -188% |
| CC1(C)CC[C@]2(C(=O)O)CC[C@]3(C)C(=CC[C@@H]4[C@@]5(C)CC[C@H](O)C(C)(C)[C@@H]5CC[C@]43C)[C@@H]2C1 [oleanolic acid, Oleanolic Acid] | – | – | – | – | – | – | inhibition at 60 min, 8.5 μM (liver microsomes, probe nalbuphine, Table 6, enhancer 8.5 μM, negative = enhancement): -87.2 ± 24.4%; inhibition at 60 min, 85 μM (liver microsomes, probe nalbuphine, Table 6, enhancer 85 μM, negative = enhancement): -136 ± 15.2%; inhibition at 60 min, 850 μM (liver microsomes, probe nalbuphine, Table 6, enhancer 850 μM, negative = enhancement): -129 ± 22.1% |
| COc1ccc([C@@H]2CC(=O)c3c(O)cc(O[C@@H]4O[C@H](CO)[C@@H](O)[C@H](O)[C@H]4O[C@@H]4O[C@@H](C)[C@H](O)[C@@H](O)[C@H]4O)cc3O2)cc1 [poncirin, Poncirin] | – | – | – | – | – | – | % Inhibition (Mean ± SD) [1]: −16.068 ± 8.122%; % Inhibition (Mean ± SD) [2]: −8.448 ± 8.261%; % Inhibition (Mean ± SD) [3]: −7.098 ± 18.196% |
| C[C@@H]1O[C@@H](Oc2c(-c3ccc(O)c(O)c3)oc3cc(O)cc(O)c3c2=O)[C@H](O)[C@H](O)[C@H]1O [quercitrin, Quercitrin] | – | – | – | – | – | – | % Inhibition (Mean ± SD) [1]: −81.27 ± 15.027%; % Inhibition (Mean ± SD) [2]: −83.60 ± 27.446%; % Inhibition (Mean ± SD) [3]: −55.57 ± 12.151% |
| C[C@@H]1O[C@@H](OC[C@H]2O[C@@H](Oc3c(-c4ccc(O)c(O)c4)oc4cc(O)cc(O)c4c3=O)[C@H](O)[C@@H](O)[C@@H]2O)[C@H](O)[C@H](O)[C@H]1O [rutin, Rutin] | – | – | – | – | – | – | % Inhibition (Mean ± SD) [1]: −19.854 ± 19.742%; % Inhibition (Mean ± SD) [2]: −29.414 ± 29.485%; % Inhibition (Mean ± SD) [3]: −33.458 ± 13.373% |
| C=C[C@H]1[C@H](O[C@@H]2O[C@H](CO)[C@@H](O)[C@H](O)[C@H]2O)OC=C2C(=O)OCC[C@]21O [swertiamarin, Swertiamarin] | – | – | – | – | – | – | % Inhibition (Mean ± SD) (Table 2, inhibitor 8.5 μM, metabolism of nalbuphine in rat liver microsome): 28.239 ± 2.248%; % Inhibition (Mean ± SD) (Table 2, inhibitor 85 μM, metabolism of nalbuphine in rat liver microsome): 27.930 ± 4.129%; % Inhibition (Mean ± SD) (Table 2, inhibitor 850 μM, metabolism of nalbuphine in rat liver microsome): −2.499 ± 6.899% |
| O=C/C=C/c1ccccc1 [trans-cinnamaldehyde, Trans- Cinnamaldehyde] | -6.97 ± 3.78% | -3.1 ± 9.46% | 18.3 ± 10.3% | -6.97 ± 3.78% | -3.1 ± 9.46% | 18.3 ± 10.3% | – |

Second part, led by results:

| inhibition at 60 min, 8.5 μM | inhibition at 60 min, 85 μM | inhibition at 60 min, 850 μM | inhibition at 60 min, 8.5 µM | inhibition at 60 min, 85 µM | inhibition at 60 min, 850 µM | Structure (SMILES) | other results |
| --- | --- | --- | --- | --- | --- | --- | --- |
| -20.2 ± 5.96% | -4.56 ± 3.37% | 9.84 ± 1.87% | -20.2 ± 5.96% | -4.56 ± 3.37% | 9.84 ± 1.87% | O=C(O)c1ccc(O)c(O)c1 [protocatechuic acid, Protocatechuic acid] | – |
| – | – | – | 3.92 ± 5.61% | 18.3 ± 7.68% | 10.1 ± 5.84% | O=c1c(-c2ccc(O)cc2)coc2c([C@@H]3O[C@H](CO)[C@@H](O)[C@H](O)[C@H]3O)c(O)ccc12 [puerarin, Puerarin] | – |
| -81.4 ± 5.59% | -143 ± 18.5% | -119 ± 19.4% | – | – | – | O=c1c(O)c(-c2ccc(O)c(O)c2)oc2cc(O)cc(O)c12 [quercetin, Quercetin] | – |
| -153 ± 24.9% | -109 ± 18.6% | -135 ± 3.9% | – | – | – | O=C(O)/C=C/c1ccccc1 [trans-cinnamic acid, Trans-Cinnamic Acid] | – |
| -14.7 ± 5.81% | 4.6 ± 8.24% | -20.6 ± 18.2% | -14.7 ± 5.81% | 4.6 ± 8.24% | -20.6 ± 18.2% | O=c1ccc2ccc(O)cc2o1 [umbelliferone, Umbelliferone] | – |
| -129 ± 8.29% | -153 ± 6.49% | -136 ± 2.88% | – | – | – | COc1c(O)cc(O)c2c(=O)cc(-c3ccccc3)oc12 [wogonin, Wogonin] | – |
| – | – | – | 72.3 ± 2.81% | 97.8 ± 4.37% | 90.8 ± 7.17% | O=c1cc(-c2ccccc2)oc2c1ccc1ccccc12 [α-naphthoflavone, α- Naphthoflavone] | inhibition at 60 min [4]: ≥ 30% |
| – | – | – | 16.8 ± 1.72% | 35.29 ± 0.22% | 34.9 ± 7.3% | C=CC(=C)CCC=C(C)C [β-myrcene, β-Myrcene] | inhibition at 60 min [4]: ≥ 30% |
| – | – | – | 95.8 ± 5.46% | 86 ± 16.5% | 99.7 ± 15.9% | O=c1cc(-c2ccccc2)oc2ccc3ccccc3c12 [β-naphthoflavone, β- Naphthoflavone] | inhibition at 60 min [4]: ≥ 30% |
